Experimental data as given in patent publication US11331299B2, “Medicinal use of serrulatane diterpenes” (The University of Sydney, priority 2016, dated 2022).
Values joined by “and” are separate entries in the source; they are usually repeats but may differ in a detail not shown here. Equal entries are not always repeated. Where two headings read alike, the source gives them in different places.

Assays:
adenosine A3 (h) = adenosine A3 (h) (Homo sapiens, UniProt P0DMS8); assay: Bioprint radioligand binding assay
Chain of adenosine A3 (h) (P0DMS8 whole entry): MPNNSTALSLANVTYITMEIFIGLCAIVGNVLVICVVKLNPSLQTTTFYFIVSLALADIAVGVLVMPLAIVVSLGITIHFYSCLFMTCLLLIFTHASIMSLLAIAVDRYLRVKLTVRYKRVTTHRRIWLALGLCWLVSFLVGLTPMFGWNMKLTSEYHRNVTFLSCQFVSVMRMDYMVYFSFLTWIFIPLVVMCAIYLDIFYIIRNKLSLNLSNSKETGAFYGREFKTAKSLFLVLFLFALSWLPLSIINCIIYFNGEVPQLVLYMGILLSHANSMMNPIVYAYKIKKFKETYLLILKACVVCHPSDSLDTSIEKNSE

adrenergic alpha 2C (h) = adrenergic alpha 2C (h) (Homo sapiens, UniProt P18825); assay: biochemical; format: binding
Chain of adrenergic alpha 2C (h) (P18825 whole entry): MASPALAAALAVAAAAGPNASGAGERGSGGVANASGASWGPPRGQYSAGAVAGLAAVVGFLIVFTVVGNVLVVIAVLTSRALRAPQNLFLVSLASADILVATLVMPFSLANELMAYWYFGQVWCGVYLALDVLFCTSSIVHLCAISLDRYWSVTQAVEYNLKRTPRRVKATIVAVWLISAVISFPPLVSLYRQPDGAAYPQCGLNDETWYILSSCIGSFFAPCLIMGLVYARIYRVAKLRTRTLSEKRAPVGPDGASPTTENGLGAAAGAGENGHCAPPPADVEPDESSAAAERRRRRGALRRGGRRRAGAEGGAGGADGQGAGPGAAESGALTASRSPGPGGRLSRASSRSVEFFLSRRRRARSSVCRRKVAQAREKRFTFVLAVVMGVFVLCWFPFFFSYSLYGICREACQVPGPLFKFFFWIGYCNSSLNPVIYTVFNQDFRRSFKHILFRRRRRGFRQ

cannabinoid CB2 (h) = cannabinoid CB2 (h) (Homo sapiens, UniProt P34972); assay: Bioprint radioligand binding assay
Chain of cannabinoid CB2 (h) (P34972 whole entry): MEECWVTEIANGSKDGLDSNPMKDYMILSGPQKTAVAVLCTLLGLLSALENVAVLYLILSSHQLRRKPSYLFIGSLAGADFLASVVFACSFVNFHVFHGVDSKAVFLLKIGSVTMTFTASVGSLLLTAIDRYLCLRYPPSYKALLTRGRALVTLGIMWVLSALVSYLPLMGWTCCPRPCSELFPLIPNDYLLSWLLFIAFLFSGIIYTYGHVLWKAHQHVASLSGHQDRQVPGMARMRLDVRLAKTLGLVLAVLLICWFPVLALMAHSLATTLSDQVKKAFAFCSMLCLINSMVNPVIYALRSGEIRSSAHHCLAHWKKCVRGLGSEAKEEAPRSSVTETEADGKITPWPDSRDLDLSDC

histamine H1 (h) = histamine H1 (h) (Homo sapiens, UniProt P35367); assay: Bioprint radioligand binding assay
Chain of histamine H1 (h) (P35367 whole entry): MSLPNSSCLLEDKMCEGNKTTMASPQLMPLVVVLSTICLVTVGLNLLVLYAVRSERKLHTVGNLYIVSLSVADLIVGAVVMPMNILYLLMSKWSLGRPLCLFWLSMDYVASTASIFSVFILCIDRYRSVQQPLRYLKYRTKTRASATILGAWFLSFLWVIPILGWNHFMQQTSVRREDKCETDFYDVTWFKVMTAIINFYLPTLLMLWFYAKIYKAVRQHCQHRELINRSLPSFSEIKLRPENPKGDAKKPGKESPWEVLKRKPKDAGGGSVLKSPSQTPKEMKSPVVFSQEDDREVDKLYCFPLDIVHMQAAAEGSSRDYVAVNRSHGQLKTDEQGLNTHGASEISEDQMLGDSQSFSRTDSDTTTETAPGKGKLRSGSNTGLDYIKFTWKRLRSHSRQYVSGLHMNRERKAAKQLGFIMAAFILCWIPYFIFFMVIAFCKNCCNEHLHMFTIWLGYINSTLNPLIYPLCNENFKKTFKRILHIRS

CCD 841 CoN = assay: OncoPanel normal cell proliferation assay (3-day); format: cell-based; conditions: Homo sapiens, 72 h, colon epithelial, 3-day incubation
HREC = assay: OncoPanel normal cell proliferation assay (3-day); format: cell-based
[1] = format: in vivo, female NOD/SCID mice; conditions: for Body Weight: single animals No. 1-3
Experimental: Two studies were conducted by Eurofins Panlabs Taiwan, Ltd. The purpose of Study 1 was to assess the possible adverse effects of Compound 1 alone or in combination with […] in Maximum Tolerated Dose (MTD) assay. The purpose of Study 2 is a follow-up study performed at escalating doses.
Compound 1 was dissolved in 10% Tween 20/90% PBS or 20% Tween 20/80% PBS for IP injections. Compound 1 was administrated alone or in combination with […] at a dosing volume of 10 or 20 mL/kg for each substance.
For mortality, test substance (Compound 1; 100 mg/kg) alone or in combination with […] (8.75, 17.5, or 35 mg/kg; given on the same day) was administered to mice by IP injection to evaluate the possible adverse effects in MTD assay. […]. […]
A follow-up MTD study was performed to evaluate for the adverse effects of the test substance (Compound 1) at escalating doses alone or in combination with […] (17.5 mg/kg) via IP in a group of 3 female NOD/SCID mice at 6-7 weeks of age.
For mortality, treatment with Compound 1 at escalating doses (200 mg/kg) alone and in combination with […] (17.5 mg/kg; given on the same day) were administered by IP injection to a group of 3 female NOD/SCID mice at 6-7 weeks of age. The mortality was monitored at 30 min and again at 3, 24, 48 and 72 hours after compound administrations.
For body weight, test substance (Compound 1) at escalating doses (200 mg/kg) alone or in combination with […] (17.5 mg/kg; given on the same day) were administered by IP injection to a group of 3 female NOD/SCID mice at 6-7 weeks of age. The body weight of each animal was measured and recorded daily for 3 days.
For behavioral, symptomatic i.e. neurological and autonomic signs, test substance (Compound 1; 200 mg/kg) alone or in combination with […] (17.5 mg/kg; given on the same day) were administered by IP injection to a group of 3 female NOD/SCID mice at 6-7 weeks of age. The animals were then observed for presences of acute toxic symptoms and autonomic effects for 30 min after the first dose.

[2] = tested on: IL-8 release from IL-17A and TNFα-induced primary human keratinocytes; assay: Keratinocyte IL-8 release (assay number 1250); format: cell-based
[3] = tested on: IL-4 secretion from human CD4-positive T-cells stimulated with antiCD2/antiCD3/antiCD28-coated beads; assay: T-cell IL-4 assay; format: cell-based
hDNMT3a = hDNMT3a (Homo sapiens, UniProt Q9Y6K1); conditions: read-out: Reference: IC50; cited from earlier work
Chain of hDNMT3a (Q9Y6K1 whole entry, looked up): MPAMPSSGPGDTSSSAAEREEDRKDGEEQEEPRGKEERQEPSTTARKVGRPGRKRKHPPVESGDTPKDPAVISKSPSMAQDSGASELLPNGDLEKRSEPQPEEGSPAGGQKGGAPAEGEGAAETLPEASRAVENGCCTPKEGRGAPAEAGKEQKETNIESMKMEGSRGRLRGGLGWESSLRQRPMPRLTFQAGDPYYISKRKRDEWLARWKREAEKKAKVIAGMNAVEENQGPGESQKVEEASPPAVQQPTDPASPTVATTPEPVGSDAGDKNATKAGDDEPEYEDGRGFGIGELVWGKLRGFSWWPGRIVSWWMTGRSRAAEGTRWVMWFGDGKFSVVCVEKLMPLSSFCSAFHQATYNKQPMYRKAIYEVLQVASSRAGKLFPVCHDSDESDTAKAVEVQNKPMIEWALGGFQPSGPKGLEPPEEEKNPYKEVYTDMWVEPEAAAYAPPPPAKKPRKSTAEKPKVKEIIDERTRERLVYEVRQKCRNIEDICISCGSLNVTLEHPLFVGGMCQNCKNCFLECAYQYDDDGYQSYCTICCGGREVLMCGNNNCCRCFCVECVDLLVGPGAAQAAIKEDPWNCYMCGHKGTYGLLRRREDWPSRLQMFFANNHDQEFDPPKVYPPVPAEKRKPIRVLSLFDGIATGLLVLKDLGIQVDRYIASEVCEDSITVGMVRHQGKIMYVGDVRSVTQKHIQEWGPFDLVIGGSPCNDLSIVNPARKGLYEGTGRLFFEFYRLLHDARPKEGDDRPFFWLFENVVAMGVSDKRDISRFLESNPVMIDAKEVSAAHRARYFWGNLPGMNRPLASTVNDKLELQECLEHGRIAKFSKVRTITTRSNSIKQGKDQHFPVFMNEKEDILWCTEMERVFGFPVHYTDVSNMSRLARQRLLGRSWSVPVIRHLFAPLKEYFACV

ASH1L = ASH1L (Homo sapiens, UniProt Q9NR48); conditions: read-out: Reference: IC50; cited from earlier work
hSMYD2 = hSMYD2 (Homo sapiens, UniProt Q9NRG4); conditions: read-out: Reference: (IC50 not given); cited from earlier work
Chain of hSMYD2 (Q9NRG4 whole entry): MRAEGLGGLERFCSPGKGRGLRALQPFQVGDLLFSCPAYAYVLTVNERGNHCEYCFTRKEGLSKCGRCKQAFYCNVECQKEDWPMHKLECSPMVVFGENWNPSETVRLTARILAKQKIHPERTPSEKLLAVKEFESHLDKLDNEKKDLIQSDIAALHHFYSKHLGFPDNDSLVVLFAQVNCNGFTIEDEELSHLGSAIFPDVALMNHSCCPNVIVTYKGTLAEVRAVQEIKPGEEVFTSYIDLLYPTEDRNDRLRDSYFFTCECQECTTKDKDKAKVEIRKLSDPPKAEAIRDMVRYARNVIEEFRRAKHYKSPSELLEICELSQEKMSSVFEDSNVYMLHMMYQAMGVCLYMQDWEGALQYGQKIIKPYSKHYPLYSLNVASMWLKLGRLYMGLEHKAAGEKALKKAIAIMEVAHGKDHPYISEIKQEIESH

MLL2(h) complex = conditions: read-out: Reference: (IC50 not given); cited from earlier work
PRMT3 (h) = PRMT3 (h) (Homo sapiens, UniProt O60678); conditions: read-out: Reference: (IC50 not given); cited from earlier work
Chain of PRMT3 (h) (O60678 whole entry): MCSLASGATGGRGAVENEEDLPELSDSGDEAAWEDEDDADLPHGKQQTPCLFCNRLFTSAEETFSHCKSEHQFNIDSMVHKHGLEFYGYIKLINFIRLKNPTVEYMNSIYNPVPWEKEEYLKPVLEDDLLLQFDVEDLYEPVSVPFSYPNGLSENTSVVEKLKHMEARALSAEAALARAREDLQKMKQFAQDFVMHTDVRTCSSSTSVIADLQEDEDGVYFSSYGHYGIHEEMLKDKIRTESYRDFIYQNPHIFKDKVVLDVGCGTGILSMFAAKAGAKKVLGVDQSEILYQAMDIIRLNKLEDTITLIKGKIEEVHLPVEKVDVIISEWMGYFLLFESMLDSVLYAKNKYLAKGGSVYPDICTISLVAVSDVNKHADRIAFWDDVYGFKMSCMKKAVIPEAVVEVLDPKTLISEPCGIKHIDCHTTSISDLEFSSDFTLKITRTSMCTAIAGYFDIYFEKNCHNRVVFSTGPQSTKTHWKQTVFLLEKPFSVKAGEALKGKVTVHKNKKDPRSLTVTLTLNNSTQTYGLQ

SUV39H2 (h) = SUV39H2 (h) (Homo sapiens, UniProt Q9H5I1); conditions: read-out: Reference: (IC50 not given); cited from earlier work
Chain of SUV39H2 (h) (Q9H5I1 whole entry): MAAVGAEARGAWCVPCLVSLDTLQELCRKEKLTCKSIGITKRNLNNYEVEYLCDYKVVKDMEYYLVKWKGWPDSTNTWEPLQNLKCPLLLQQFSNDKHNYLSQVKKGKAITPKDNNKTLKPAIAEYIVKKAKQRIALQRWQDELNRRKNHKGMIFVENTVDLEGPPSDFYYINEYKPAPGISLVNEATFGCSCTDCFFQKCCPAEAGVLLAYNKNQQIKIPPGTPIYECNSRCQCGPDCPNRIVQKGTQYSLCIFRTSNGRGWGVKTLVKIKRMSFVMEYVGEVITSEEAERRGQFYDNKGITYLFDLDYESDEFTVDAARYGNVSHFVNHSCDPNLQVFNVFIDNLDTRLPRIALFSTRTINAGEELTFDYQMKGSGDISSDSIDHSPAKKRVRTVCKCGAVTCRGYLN

[4] = read-out: % inhibition of control specific binding
[5] = 200 mg/kg IP, individual mice No. 1-3, 30 min after first dose, Study 2 Round 1
For Autonomic signs: Death in this document: key: −: no effects; ±: Slight to moderate effects; +: Severe effects; ↓: Low; D: Deep.
For Autonomic signs: Dec. Palpebral Size in this document: key: −: no effects; ±: Slight to moderate effects; +: Severe effects; ↓: Low; D: Deep.
For Autonomic signs: Diarrhea in this document: key: −: no effects; ±: Slight to moderate effects; +: Severe effects; ↓: Low; D: Deep.
For Autonomic signs: Inc. Palpebral Size in this document: key: −: no effects; ±: Slight to moderate effects; +: Severe effects; ↓: Low; D: Deep.

CC(C)=CCC[C@H](CO)[C@@H]1CC[C@@H](C)c2c1cc(C)c(O)c2O [Compound 1, 7,8,18-trihydroxyserrulat-14-ene]
inhibition at 10 µM (adenosine A3 (h); ADENOSINE A3 (h) (agonist radioligand), read-out: % Inhibition of Control Specific Binding): 92%
inhibition at 10 µM (adenosine A3 (h); [4]): 92%
inhibition at 10 µM (adrenergic alpha 2C (h); […] alpha 2C (h) (antagonist radioligand), read-out: % Inhibition of Control Specific Binding): 92%
inhibition at 10 µM (adrenergic alpha 2C (h); [4]): 92%
inhibition at 10 µM (cannabinoid CB2 (h); CANNABINOID CB2 (h) (agonist radioligand), read-out: % Inhibition of Control Specific Binding): 71%
inhibition at 10 µM (cannabinoid CB2 (h); [4]): 71%
inhibition at 10 µM (histamine H1 (h); HISTAMINE H1 (h) (antagonist radioligand), read-out: % Inhibition of Control Specific Binding): 64%
inhibition at 10 µM (histamine H1 (h); [4]): 64%
EC50 (CCD 841 CoN; read-out: Cell Count EC50): 4.86 µM
GI50 (CCD 841 CoN; read-out: Cell Count GI50): 5.27 µM
IC50 (CCD 841 CoN; read-out: Cell Count IC50): 14.3 µM
Relative cell count (%) Mean (HREC; 3.00E+00 microM): 85.1%
Relative cell count (%) Mean (HREC; 3.00E+01 microM): 20.9%
Relative cell count (%) Mean (HREC; 3.01E−01 microM): 96.7%
Relative cell count (%) Mean (HREC; 3.01E−02 microM): 96.0%
Relative cell count (%) Mean (HREC; 3.02E−03 microM): 94.0%
Relative cell count (%) Mean (HREC; 9.49E+00 microM): 40.4%
Relative cell count (%) Mean (HREC; 9.51E−01 microM): 89.3%
Relative cell count (%) Mean (HREC; 9.52E−02 microM): 95.8%
Relative cell count (%) Mean (HREC; 9.53E−03 microM): 93.3%
Relative cell count (%) Mean (HREC; 9.55E−04 microM): 98.5%
EC50 (HREC; 72 h, renal mixed epithelial, 3-day incubation, read-out: Cell Count EC50): 6.45 µM
GI50 (HREC; 72 h, renal mixed epithelial, 3-day incubation, read-out: Cell Count GI50): 4.3 µM
IC50 (HREC; 72 h, renal mixed epithelial, 3-day incubation, read-out: Cell Count IC50): 7.98 µM
Autonomic signs: Body Temperature [1, 5]: ↓+
Autonomic signs: Death [1, 5]: −
Autonomic signs: Dec. Palpebral Size [1, 5]: −
Autonomic signs: Diarrhea [1, 5]: −
Autonomic signs: Inc. Palpebral Size [1, 5]: −
Autonomic signs: Lacrimation [1, 5]: −
Autonomic signs: Others [1, 5]: −
Autonomic signs: Piloerection [1, 5]: −
Autonomic signs: Salivation F.V. [1, 5]: −
Autonomic signs: Skin Color [1, 5]: −
adverse effects ([1]; Study 1, Compound 1 100 mg/kg IP alone): did not elicit significant adverse effects
survival ([1]; Study 1, Compound 1 100 mg/kg IP alone, 72-hour observation period): All test animals survived
Response (death/test) ([1]; Study 1, IP, 100 mg/kg, 30 min): 0/3
Response (death/test) ([1]; Study 1, IP, 100 mg/kg, 3 hrs): 0/3
Response (death/test) ([1]; Study 1, IP, 100 mg/kg, Day 1): 0/3
Response (death/test) ([1]; Study 1, IP, 100 mg/kg, Day 2): 0/3
Response (death/test) ([1]; Study 1, IP, 100 mg/kg, Day 3): 0/3
autonomic sign ([1]; Study 2, 200 mg/kg IP, 30 min after dose): Hypothermia
Response (death/test) ([1]; Study 2, IP, 200 mg/kg, 30 min): 0/3
Response (death/test) ([1]; Study 2, IP, 200 mg/kg, 3 hrs): 0/3
Body Weight ([1]; Study 2, IP, 200 mg/kg, Day 0, 200 mg/kg): 22 g and 21 g (2×)
Response (death/test) ([1]; Study 2, IP, 200 mg/kg, Day 1): 1/3
Body Weight ([1]; Study 2, IP, 200 mg/kg, Day 1): 21 g
Response (death/test) ([1]; Study 2, IP, 200 mg/kg, Day 2): 3/3
Response (death/test) ([1]; Study 2, IP, 200 mg/kg, Day 3): 3/3
B.W. ([1]; Study 2 Round 1, signs table, IP, 200 mg/kg, animals No. 1-3): 22 g and 21 g
Emax ([2]; read-out: Inhibition of IL-8 release, Max Effect): 110%
EC50 ([2]; read-out: Inhibition of IL-8 release, Rel EC50): 0.157 µM
Emax ([3]; read-out: Inhibition of IL-4 release, Max Effect): 100%
EC50 ([3]; read-out: Inhibition of IL-4 release, Rel EC50): 0.523 µM

Nc1ncnc2c1ncn2[C@@H]1O[C@H](CSCC[C@H](N)C(=O)O)[C@@H](O)[C@H]1O [SAH]
IC50 (hDNMT3a): 0.052 µM
IC50 (ASH1L): 9.1 µM
IC50 (hSMYD2): 0.16 µM
IC50 (MLL2(h) complex): 0.97 µM
IC50 (PRMT3 (h)): 0.86 µM
IC50 (SUV39H2 (h)): 24 µM
